The record followed here is article PMC5884943, “Discovery of Novel Inhibitors of Indoleamine 2,3-Dioxygenase 1 Through Structure-Based Virtual Screening” (Frontiers in Pharmacology, 2018).

SMILES strings stand for the structures.

The assay has as its target T1, human IDO1 protein (Homo sapiens, UniProt P14902).
T1 construct: purchased ChemPartner Lot; No. 20160706
Description: Enzymatic IDO1 assay (Absorbance 321 assay). In kind it is biochemical. The following applies: for Avg_Inh (%) @ 50uM: average inhibition, Table S2; for Background (%): background signal of the compound in the absorbance assay. The method, then: The standard assay mixture contained modified potassium phosphate buffer at pH 6.5, 100 μM L-tryptophan (Sigma, Cat. […] No. […]). […] Then the assay plate was read at OD321 kinetically in Spectramax. […] Fit the data in […]5.0 software to obtain IC50-values using Equation (2): (2) Y=Bottom+Top-Bottom/1+10^(logIC50-X)×HillSlope where Y stands for inhibition percentage and X stands for compound concentration. All determinations were carried out in duplicate.

T1 sequence (P14902 whole entry): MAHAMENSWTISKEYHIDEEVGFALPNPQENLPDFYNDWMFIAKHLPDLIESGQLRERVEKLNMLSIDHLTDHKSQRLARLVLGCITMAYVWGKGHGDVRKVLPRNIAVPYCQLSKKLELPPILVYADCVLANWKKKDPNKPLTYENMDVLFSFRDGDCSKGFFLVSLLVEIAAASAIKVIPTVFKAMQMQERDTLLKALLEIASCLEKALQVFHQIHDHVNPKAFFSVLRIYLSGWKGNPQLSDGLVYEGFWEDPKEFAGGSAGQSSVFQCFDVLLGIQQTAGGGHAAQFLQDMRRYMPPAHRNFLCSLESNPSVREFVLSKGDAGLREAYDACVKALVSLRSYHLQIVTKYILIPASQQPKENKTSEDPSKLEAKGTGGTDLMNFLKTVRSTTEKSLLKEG

For the compound `O=C(NCCCNC(=O)c1cc2ccccc2[nH]1)c1ccc(F)cc1` [DCI-034], the “Avg_Inh (%) @ 50uM” value is 5.04% and the “Background (%)” value came out at 42.24%.

Consider `CN(CCCNc1cc(=O)oc2ccccc12)C(=O)c1ccc(F)cc1` [DCI-035], for which the “Avg_Inh (%) @ 50uM” value worked out at 2.22% and the “Background (%)” value was 46.21%.

In the case of `Cc1cccc(NC(=S)NC(=O)c2cc3ccccc3o2)n1` [DCI-036], the “Avg_Inh (%) @ 50uM” value was 76.32% and the “Background (%)” value turned out to be 74.58%.

`CC(=O)c1nc2ccccc2[nH]1` [DCI-037]: the “Avg_Inh (%) @ 50uM” value came to 24.85% and the “Background (%)” value is recorded as 60.63%.

Regarding `Cc1cc(=O)c2ccc(C(F)(F)F)cc2[nH]1` [DCI-038], the “Avg_Inh (%) @ 50uM” value stood at 6.52% and the “Background (%)” value came out at 60.07%.

With `O=C(CC1Nc2ccccc2NC1=O)NCc1ccccc1` (stereo not shown) [DCI-039], the “Avg_Inh (%) @ 50uM” value is reported as -1.03% and the “Background (%)” value was determined as 36.31%.

For `NNC(=O)c1ccc(COc2ccc3c(c2)CCC3)cc1` [DCI-040], the “Avg_Inh (%) @ 50uM” value was 40.66% and the “Background (%)” value amounted to 31.86%.

In the case of `CCCn1c(=O)c(C(=O)Nc2ccccc2N)c(O)c2ccccc21` [DCI-041], the “Avg_Inh (%) @ 50uM” value is listed as 72.23% and the “Background (%)” value came to 50.76%.

With `O=C1OC(c2ccccc2)c2ccc3ccccc3c21` (stereo not shown) [DCI-042], the “Avg_Inh (%) @ 50uM” value was 59.00% and the “Background (%)” value came to 48.79%.

With `CCCc1[nH]nc2c1C(c1cccc(O)c1)C(C#N)=C(N)O2` (stereo not shown) [DCI-043], the “Avg_Inh (%) @ 50uM” value stood at 1.84% and the “Background (%)” value was 30.60%.

For `CCOc1nccc2sc3ccccc3c12` [DCI-044], the “Avg_Inh (%) @ 50uM” value was found to be 44.52% and the “Background (%)” value came out at 40.43%.

With `Cc1c(-c2ccccc2)nc(-c2ccccc2)[nH]c1=O` [DCI-045], the “Avg_Inh (%) @ 50uM” value is 11.41% and the “Background (%)” value was found to be 39.40%.

In the case of `O=c1cc(NCCN2CCCC2)c2ccccc2o1` [DCI-047], the “Avg_Inh (%) @ 50uM” value is recorded as -3.88% and the “Background (%)” value is 42.54%.

In the case of `COc1ccc(-c2nc(=O)cc(-c3ccccc3)o2)cc1` [DCI-048], the “Avg_Inh (%) @ 50uM” value worked out at 7.58% and the “Background (%)” value was 71.51%.

For `CC(Oc1ccccc1)C(=O)N1CCc2ccccc21` (stereo not shown) [DCI-049], the “Avg_Inh (%) @ 50uM” value was determined as 1.65% and the “Background (%)” value is 31.42%.

As to `O=C(Nc1ccccc1OCC1CCCO1)NC1CCCCC1` (stereo not shown) [DCI-050], the “Avg_Inh (%) @ 50uM” value came out at 0.29% and the “Background (%)” value worked out at 31.57%.

For `CC(O)Cn1c(=O)c(=O)[nH]c2ccccc21` (stereo not shown) [DCI-051], the “Avg_Inh (%) @ 50uM” value is reported as 6.69% and the “Background (%)” value amounted to 57.46%.

Turning to `Oc1cccc(C(O)CNCc2c(Cl)cccc2Cl)c1` (stereo not shown) [DCI-052], the “Avg_Inh (%) @ 50uM” value is on record as 3.32% and the “Background (%)” value was determined as 31.34%.

As to `CC(=O)c1[nH]c2ccccc2c1C(C)=O` [DCI-053], the “Avg_Inh (%) @ 50uM” value is on record as 3.68% and the “Background (%)” value came to 43.33%.

With `O=C1c2ccccc2C(=O)N1CNCc1cc(=O)[nH]c(=O)[nH]1` [DCI-054], the “Avg_Inh (%) @ 50uM” value is on record as 4.51% and the “Background (%)” value stood at 48.55%.

Turning to `COc1ccc2oc(C(O)c3c(C)oc4ccc(OC)cc34)cc2c1` (stereo not shown) [DCI-056], the “Avg_Inh (%) @ 50uM” value was 55.55% and the “Background (%)” value worked out at 43.42%.

Turning to `Cc1oc2ccc(O)cc2c1C(=O)c1ccc(Br)cc1` [DCI-057], the “Avg_Inh (%) @ 50uM” value amounted to 67.78% and the “Background (%)” value is on record as 57.09%.

Turning to `O=C1c2ccccc2NC(c2cccc([N+](=O)[O-])c2)N1O` (stereo not shown) [DCI-058], the “Avg_Inh (%) @ 50uM” value is 4.69% and the “Background (%)” value worked out at 37.75%.

As to `COc1ccc(C(=O)c2c[nH]cc2-c2ccccc2)cc1` [DCI-059], the “Avg_Inh (%) @ 50uM” value was 17.41% and the “Background (%)” value amounted to 49.85%.

In the case of `Cc1cc(C)c2c(=O)cc(C(=O)Nc3cc(-c4ccc(F)cc4)no3)oc2c1` [DCI-060], the “Avg_Inh (%) @ 50uM” value is listed as 79.74% and the “Background (%)” value worked out at 59.25%.

`O=C(CSc1ncnc2sc3c(c12)CCC3)Nc1ccccc1` [DCI-061]: the “Avg_Inh (%) @ 50uM” value turned out to be 63.45% and the “Background (%)” value was 54.35%.

Take `c1ccc2c3c(c(CN4CCCCC4)cc2c1)COC3` [DCI-062]: the “Avg_Inh (%) @ 50uM” value was 8.78% and the “Background (%)” value is given as 33.45%.

As for `Cc1nn(C)cc1CN(C)C(=O)c1cc2ccccc2oc1=O` [DCI-063], the “Avg_Inh (%) @ 50uM” value turned out to be 2.41% and the “Background (%)” value is recorded as 54.16%.

Consider `O=C1NN(c2ncnc3sc4c(c23)CCCC4)C(=O)c2cccc3cccc1c23` [DCI-064], for which the “Avg_Inh (%) @ 50uM” value turned out to be 6.57% and the “Background (%)” value came to 36.33%.

`Cc1nc2ccccc2cc1C(=O)N/N=C/c1cccc(Cl)c1` [DCI-065]: the “Avg_Inh (%) @ 50uM” value was 26.49% and the “Background (%)” value worked out at 68.09%.

As to `Cn1c(=O)c([N+](=O)[O-])c(Nc2ccc(Cl)cc2)c2ccccc21` [DCI-066], the “Avg_Inh (%) @ 50uM” value is 24.55% and the “Background (%)” value came to 53.30%.

Take `Cc1onc(-c2ccccc2Cl)c1C(=O)Nc1cccc([N+](=O)[O-])c1` [DCI-067]: the “Avg_Inh (%) @ 50uM” value is given as 28.06% and the “Background (%)” value is 37.16%.

As to `CCn1c(SCC(=O)Nc2ccccc2[N+](=O)[O-])nnc1-c1ccc(O)cc1` [DCI-068], the “Avg_Inh (%) @ 50uM” value is listed as 5.69% and the “Background (%)” value amounted to 35.54%.

Turning to `Cc1ccc(C2C(C#N)=C(N)Oc3ccc4ccc(O)cc4c32)cc1` (stereo not shown) [DCI-069], the “Avg_Inh (%) @ 50uM” value is 79.20% and the “Background (%)” value amounted to 42.53%.

As for `COc1cc(C)c(Cl)cc1S(=O)(=O)Nc1cccc(C)c1C` [DCI-070], the “Avg_Inh (%) @ 50uM” value is listed as 46.52% and the “Background (%)” value is 35.28%.

As for `CC(C)(C)NC(=O)Cc1coc2ccc3ccccc3c12` [DCI-071], the “Avg_Inh (%) @ 50uM” value was found to be 22.41% and the “Background (%)” value is on record as 39.05%.

As to `O=[N+]([O-])c1ccccc1Sc1c(O)ccc2ccccc12` [DCI-072], the “Avg_Inh (%) @ 50uM” value is 74.65% and the “Background (%)” value is 49.90%.

For `O=c1/c(=C/c2c(O)ccc3ccccc23)sc2n1CCCN=2` [DCI-073], the “Avg_Inh (%) @ 50uM” value was 64.05% and the “Background (%)” value was determined as 54.63%.

`CCc1ccc(OCC(=O)Nc2ccccc2C(N)=O)c(Br)c1` [DCI-074]: the “Avg_Inh (%) @ 50uM” value was found to be 21.71% and the “Background (%)” value is on record as 35.63%.

Turning to `O=C(COc1ccc2ccccc2c1)c1ccc(Br)cc1` [DCI-075], the “Avg_Inh (%) @ 50uM” value was determined as 79.98% and the “Background (%)” value is recorded as 55.42%.

`Cc1ccccc1C(=O)Oc1ccc2ccc(O)cc2c1` [DCI-076]: the “Avg_Inh (%) @ 50uM” value is 43.35% and the “Background (%)” value turned out to be 40.50%.

Take `N#CCn1nc(-c2ccc(Cl)cc2)c2c1-c1ccccc1C2` [DCI-077]: the “Avg_Inh (%) @ 50uM” value came out at 51.64% and the “Background (%)” value is on record as 57.47%.

`Cc1cc(C)c2c(N)c(C(=O)Nc3ccc(S(N)(=O)=O)cc3)sc2n1` [DCI-078]: the “Avg_Inh (%) @ 50uM” value was -8.99% and the “Background (%)” value turned out to be 62.57%.

For the compound `O=C(O)c1ccc(Cn2nnc3cc4ccccc4cc32)cc1` [DCI-080], the “Avg_Inh (%) @ 50uM” value is on record as -3.23% and the “Background (%)” value was determined as 48.38%.
